In the CheMixHub viscosity set:
± gives the uncertainty stated by the source.

Assay: xn = mol fraction of the nth substance listed

CCOCCOCC + COCCOCCOCCO
viscosity [mPa·s], 101.33 kPa
Settings	298.15 K	308.15 K
x2 = 0.0126	0.622 ± 0.017	0.539 ± 0.015
x2 = 0.0328	0.652 ± 0.018	0.561 ± 0.016
x2 = 0.052	0.688 ± 0.019	0.586 ± 0.016
x2 = 0.0807	0.73 ± 0.02	0.617 ± 0.017
x2 = 0.1339	0.824 ± 0.022	0.691 ± 0.019
x2 = 0.1806	0.917 ± 0.024	0.765 ± 0.021
x2 = 0.2394	1.047 ± 0.027	0.872 ± 0.023
x2 = 0.2918	1.18 ± 0.03	0.978 ± 0.025
x2 = 0.342	1.332 ± 0.033	1.097 ± 0.028
x2 = 0.385	1.473 ± 0.037	1.198 ± 0.03
x2 = 0.4103	1.588 ± 0.039	1.262 ± 0.032
x2 = 0.4604	1.801 ± 0.044	1.417 ± 0.035
x2 = 0.5091	2.04 ± 0.049	1.573 ± 0.039
x2 = 0.5505	2.273 ± 0.055	1.725 ± 0.042
x2 = 0.5978	2.561 ± 0.061	1.923 ± 0.047
x2 = 0.6522	2.935 ± 0.07	2.167 ± 0.052
x2 = 0.7117	3.396 ± 0.08	2.476 ± 0.059
x2 = 0.7976	4.169 ± 0.097	2.989 ± 0.071
x2 = 0.8577	4.791 ± 0.11	3.415 ± 0.08
x2 = 0.9256	5.588 ± 0.12	3.957 ± 0.092
x2 = 0.9633	6.103 ± 0.13	4.311 ± 0.1

ClC(Cl)Cl + CS(C)=O
viscosity [mPa·s], 101.33 kPa
Settings	x2 = 0.0955	x2 = 0.2039	x2 = 0.3021	x2 = 0.4068	x2 = 0.5023	x2 = 0.6044	x2 = 0.7038	x2 = 0.8047	x2 = 0.9014
298.15 K	0.642 ± 0.006	0.839 ± 0.01	1.018 ± 0.013	1.227 ± 0.018	1.365 ± 0.023	1.498 ± 0.028	1.611 ± 0.033	1.729 ± 0.038	1.842 ± 0.044
308.15 K	0.576 ± 0.006	0.738 ± 0.008	0.882 ± 0.012	1.057 ± 0.016	1.171 ± 0.019	1.276 ± 0.024	1.366 ± 0.028	1.458 ± 0.032	1.545 ± 0.037
318.15 K	0.527 ± 0.005	0.682 ± 0.008	0.8 ± 0.01	0.915 ± 0.014	1.011 ± 0.017	1.097 ± 0.02	1.171 ± 0.024	1.246 ± 0.028	1.309 ± 0.032

O=CC(Cl)(Cl)Cl + C[N+](=O)[O-]
viscosity [mPa·s], 101.33 kPa
Settings	x1 = 0.1002	x1 = 0.2003	x1 = 0.2963	x1 = 0.4004	x1 = 0.4966	x1 = 0.5833	x1 = 0.6948	x1 = 0.8007	x1 = 0.8965
298.15 K	0.661 ± 0.0087	0.7023 ± 0.0093	0.7591 ± 0.01	0.8043 ± 0.01	0.8435 ± 0.011	0.8874 ± 0.012	0.9389 ± 0.012	0.9876 ± 0.013	1.028 ± 0.013
323.15 K	0.5186 ± 0.007	0.5507 ± 0.0074	0.5793 ± 0.0078	0.6238 ± 0.0083	0.6316 ± 0.0084	0.6661 ± 0.0089	0.6895 ± 0.0092	0.7155 ± 0.0095	0.7491 ± 0.0099

O=C(O)CCl + C[N+](C)(C)CCO.[Cl-]
101 kPa, x2 = 0.333
Settings	viscosity [mPa·s]
293.15 K	161 ± 4.1
298.15 K	117.9 ± 2.8
303.15 K	88.59 ± 2
308.15 K	68.11 ± 1.5
313.15 K	53.44 ± 1.1
318.15 K	42.65 ± 0.91
323.15 K	34.65 ± 0.74

CC(=O)OCc1ccccc1 + Cc1ccc(C)cc1
viscosity [mPa·s], 101 kPa
Settings	x1 = 0.0917	x1 = 0.1773	x1 = 0.2764	x1 = 0.3701	x1 = 0.4679	x1 = 0.5689	x1 = 0.6717	x1 = 0.7678	x1 = 0.8698	x1 = 0.9473
303.15 K	0.602 ± 0.008	0.645 ± 0.008	0.716 ± 0.009	0.792 ± 0.01	0.891 ± 0.011	1.005 ± 0.013	1.134 ± 0.014	1.267 ± 0.016	1.421 ± 0.018	1.549 ± 0.019
313.15 K	0.537 ± 0.007	0.571 ± 0.007	0.624 ± 0.008	0.681 ± 0.009	0.76 ± 0.01	0.85 ± 0.011	0.937 ± 0.012	1.036 ± 0.013	1.179 ± 0.015	1.273 ± 0.016

ClC(Cl)Cl + Cc1ccc(C)cc1
298.15 K, 101 kPa
Settings	viscosity [mPa·s]
x1 = 0.4429	0.6167 ± 0.0078
x1 = 0.5074	0.6102 ± 0.0077
x1 = 0.5571	0.6084 ± 0.0077
x1 = 0.5997	0.6031 ± 0.0076
x1 = 0.6505	0.6003 ± 0.0076
x1 = 0.6897	0.5954 ± 0.0075
x1 = 0.7351	0.5903 ± 0.0074

CC(=O)OCc1ccccc1 + Cc1cccc(C)c1
viscosity [mPa·s], 101 kPa
Settings	x1 = 0.0925	x1 = 0.1766	x1 = 0.2746	x1 = 0.3691	x1 = 0.4674	x1 = 0.5665	x1 = 0.6703	x1 = 0.7681	x1 = 0.8773	x1 = 0.9356
303.15 K	0.593 ± 0.008	0.638 ± 0.008	0.712 ± 0.009	0.79 ± 0.01	0.884 ± 0.011	0.996 ± 0.012	1.125 ± 0.014	1.257 ± 0.016	1.436 ± 0.018	1.535 ± 0.019
313.15 K	0.528 ± 0.007	0.576 ± 0.007	0.634 ± 0.008	0.679 ± 0.009	0.751 ± 0.01	0.837 ± 0.011	0.942 ± 0.012	1.05 ± 0.013	1.177 ± 0.015	1.245 ± 0.016

CC(=O)OCc1ccccc1 + Cc1cccc(O)c1
313.15 K, 101.33 kPa
Settings	viscosity [mPa·s]
x1 = 0.115	5.114
x1 = 0.272	3.917
x1 = 0.435	3.06
x1 = 0.62	2.337
x1 = 0.81	1.765

ClC(Cl)Cl + Cc1ccccc1
298.15 K
Settings	viscosity [mPa·s]
101 kPa, x1 = 0.1361	0.5653 ± 0.0071
101 kPa, x1 = 0.2872	0.5753 ± 0.0073
101 kPa, x1 = 0.4067	0.5833 ± 0.0073
101 kPa, x1 = 0.554	0.5861 ± 0.0074
101 kPa, x1 = 0.6211	0.584 ± 0.0074
101 kPa, x1 = 0.6656	0.58 ± 0.0073
101 kPa, x1 = 0.8806	0.5593 ± 0.0071
101.33 kPa, x1 = 0.0912	0.5573 ± 0.0056
101.33 kPa, x1 = 0.1727	0.5608 ± 0.0057
101.33 kPa, x1 = 0.2562	0.5636 ± 0.0057
101.33 kPa, x1 = 0.3481	0.5661 ± 0.0057
101.33 kPa, x1 = 0.5471	0.5687 ± 0.0057
101.33 kPa, x1 = 0.6862	0.5638 ± 0.0057
101.33 kPa, x1 = 0.8428	0.5531 ± 0.0056
101.33 kPa, x1 = 0.9237	0.545 ± 0.0055

CC(=O)OCc1ccccc1 + Cc1ccccc1C
viscosity [mPa·s], 101 kPa
Settings	x1 = 0.0897	x1 = 0.1695	x1 = 0.2706	x1 = 0.3684	x1 = 0.4671	x1 = 0.562	x1 = 0.6623	x1 = 0.7598	x1 = 0.8617	x1 = 0.9299
303.15 K	0.751 ± 0.01	0.802 ± 0.01	0.873 ± 0.011	0.957 ± 0.012	1.047 ± 0.013	1.142 ± 0.014	1.252 ± 0.016	1.361 ± 0.017	1.478 ± 0.018	1.563 ± 0.019
313.15 K	0.671 ± 0.009	0.72 ± 0.009	0.783 ± 0.01	0.845 ± 0.011	0.909 ± 0.011	0.976 ± 0.012	1.054 ± 0.013	1.135 ± 0.014	1.224 ± 0.015	1.285 ± 0.016

O=[N+]([O-])[O-].[Na+] + N
293.15 K, 101 kPa
Settings	viscosity [mPa·s]
x1 = 0.02	0.182 ± 0.005
x1 = 0.039	0.225 ± 0.006
x1 = 0.081	0.374 ± 0.009

[I-].[Li+] + O
Settings	viscosity [mPa·s]
293.15 K, 100 kPa, x1 = 0.005076	1.025 ± 0.0093
293.15 K, 101 kPa, x1 = 0.00701	1.029 ± 0.027
293.15 K, 101 kPa, x1 = 0.01933	1.076 ± 0.028
293.15 K, 101 kPa, x1 = 0.04884	1.205 ± 0.032
293.15 K, 101 kPa, x1 = 0.06296	1.292 ± 0.034
293.15 K, 101 kPa, x1 = 0.08324	1.429 ± 0.037
293.15 K, 101 kPa, x1 = 0.1073	1.656 ± 0.043
293.15 K, 101 kPa, x1 = 0.1418	2.218 ± 0.058
303.15 K, 101 kPa, x1 = 0.0017	0.808 ± 0.021
303.15 K, 101 kPa, x1 = 0.00416	0.813 ± 0.021
303.15 K, 101 kPa, x1 = 0.00701	0.821 ± 0.021
303.15 K, 101 kPa, x1 = 0.01933	0.866 ± 0.022
303.15 K, 101 kPa, x1 = 0.02768	0.895 ± 0.023
303.15 K, 101 kPa, x1 = 0.04884	0.977 ± 0.025
303.15 K, 101 kPa, x1 = 0.06296	1.049 ± 0.027
303.15 K, 101 kPa, x1 = 0.08324	1.178 ± 0.03
303.15 K, 101 kPa, x1 = 0.1073	1.376 ± 0.035
303.15 K, 101 kPa, x1 = 0.1418	1.819 ± 0.047
310.15 K, 101 kPa, x1 = 0.000205	0.6972 ± 0.0061
310.15 K, 101 kPa, x1 = 0.00126	0.6998 ± 0.0062
310.15 K, 101 kPa, x1 = 0.001978	0.7017 ± 0.0062
310.15 K, 101 kPa, x1 = 0.002695	0.7035 ± 0.0063
310.15 K, 101 kPa, x1 = 0.003679	0.706 ± 0.0063
310.15 K, 101 kPa, x1 = 0.005197	0.7098 ± 0.0064
310.15 K, 101 kPa, x1 = 0.005988	0.7118 ± 0.0065
323.15 K, 101 kPa, x1 = 0.0017	0.555 ± 0.014
323.15 K, 101 kPa, x1 = 0.00416	0.561 ± 0.014
323.15 K, 101 kPa, x1 = 0.00701	0.567 ± 0.015
323.15 K, 101 kPa, x1 = 0.01933	0.602 ± 0.015
323.15 K, 101 kPa, x1 = 0.02768	0.628 ± 0.016
323.15 K, 101 kPa, x1 = 0.04884	0.693 ± 0.018
323.15 K, 101 kPa, x1 = 0.06296	0.752 ± 0.019
323.15 K, 101 kPa, x1 = 0.08324	0.849 ± 0.022
323.15 K, 101 kPa, x1 = 0.1073	1.002 ± 0.026
323.15 K, 101 kPa, x1 = 0.1418	1.344 ± 0.035
